Experimental data published in patent US8557853B2, “Aryl fluoroethyl ureas acting as alpha 2 adrenergic agents” (Allergan, Inc., priority 2007, dated 2013).
Read-outs that look alike come from different tables or passages of the source.

Experiments:
Format in all cases: cell-based
alpha2A receptor = molecular target: T1, alpha2A receptor (Homo sapiens, UniProt P08913); assay: RSAT (Receptor Selection and Amplification Technology) assay, alpha 2A; conditions: for EC50 / Alpha 2A EC50: RSAT, transfected NIH-3T3 cells, "not active" = not active at concentrations less than 10 micromolar; for Alpha 2A IA: intrinsic activity: ratio of maximal effect of drug to maximal effect of standard full agonist brimonidine (UK14304)
T1 construct: expressed in transfected cells; host or cells: NIH-3T3 cells
T1 sequence (P08913 1-465): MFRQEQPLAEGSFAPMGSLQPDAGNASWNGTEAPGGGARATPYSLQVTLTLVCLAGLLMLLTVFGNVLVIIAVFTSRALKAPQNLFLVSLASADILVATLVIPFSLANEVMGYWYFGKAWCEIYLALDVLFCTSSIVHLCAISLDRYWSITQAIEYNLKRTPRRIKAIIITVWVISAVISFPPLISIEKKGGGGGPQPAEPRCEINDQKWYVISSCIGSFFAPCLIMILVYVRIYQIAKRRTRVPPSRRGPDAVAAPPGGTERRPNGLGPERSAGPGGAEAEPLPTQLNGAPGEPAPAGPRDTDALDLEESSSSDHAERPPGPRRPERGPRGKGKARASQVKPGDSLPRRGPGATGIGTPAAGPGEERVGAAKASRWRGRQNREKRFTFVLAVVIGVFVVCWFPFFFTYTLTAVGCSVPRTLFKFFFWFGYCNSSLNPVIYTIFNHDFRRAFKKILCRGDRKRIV
Source text: (§1) The aryl fluoroethyl ureas of the invention are agonists of alpha2 adrenergic receptors. […] Al, 1995, Pharmacol. Toxicol. 76, pp. 308-311 (incorporated herein by reference) and is also described below. Another reference pertinent to this assay is Conklin et al. (1993) Nature 363:274-6, Receptor Selection and Amplification Technology (RSAT) assay, also incorporated herein by reference.
(§2) The RSAT assay measures a receptor-mediated loss of contact inhibition that results in selective proliferation of receptor-containing cells in a mixed population of confluent cells. The increase in cell number is assessed with an appropriate transfected marker gene such as ∃-galactosidase, the activity of which can be easily measured in a 96-well format. Receptors that activate the G protein, Gq, elicit this response. Alpha 2 receptors, which normally couple to Gi, activate the RSAT response when coexpressed with a hybrid Gq protein that has a Gi receptor recognition domain, called Gq/i5.
(§3) NIH-3T3 cells are plated at a density of 2×10^6 cells in 15 cm dishes and maintained in Dulbecco's modified Eagle's medium supplemented with 10% calf serum. One day later, cells are cotransfected by calcium phosphate precipitation with mammalian expression plasmids encoding p-SV-β-galactosidase (5-10 μg), receptor (1-2 μg) and G protein (1-2 μg). 40 μg salmon sperm DNA may also be included in the transfection mixture. Fresh media is added on the following day and 1-2 days later, cells are harvested and frozen in 50 assay aliquots. Cells are thawed and 100 μl added to 100 μl aliquots of various concentrations of drugs in triplicate in 96-well dishes. Incubations continue 72-96 hr at 37° C. After washing with phosphate-buffered saline, ∃-galactosidase enzyme activity is determined by adding 200 μl of the chromogenic substrate (consisting of 3.5 mM o-nitrophenyl-β-D-galactopyranoside and 0.5% nonidet P-40 in phosphate buffered saline), incubating overnight at 30° C. and measuring optical density at 420 nm. The absorbance is a measure of enzyme activity, which depends on cell number and reflects a receptor-mediated cell proliferation. The efficacy or intrinsic activity is calculated as a ratio of the maximal effect of the drug to the maximal effect of a standard full agonist for each receptor subtype. Brimonidine, also called UK14304, the chemical structure of which is shown below, is used as the standard agonist for the alpha2A, alpha2B and alpha2C receptors.
(§4) The results of the RSAT assay with several exemplary compounds of the invention are disclosed in Table 1 below together with the chemical structures of these compounds. “Not active” means the compounds are not active at concentrations less than 10 micromolar.

alpha2B receptor = molecular target: T2, alpha2B receptor (Homo sapiens, UniProt P18089); assay: RSAT (Receptor Selection and Amplification Technology) assay, alpha 2B; conditions: for Alpha 2B IA: intrinsic activity: ratio of maximal effect of drug to maximal effect of standard full agonist brimonidine (UK14304)
T2 construct: expressed in transfected cells; host or cells: NIH-3T3 cells
T2 sequence (P18089 1-450): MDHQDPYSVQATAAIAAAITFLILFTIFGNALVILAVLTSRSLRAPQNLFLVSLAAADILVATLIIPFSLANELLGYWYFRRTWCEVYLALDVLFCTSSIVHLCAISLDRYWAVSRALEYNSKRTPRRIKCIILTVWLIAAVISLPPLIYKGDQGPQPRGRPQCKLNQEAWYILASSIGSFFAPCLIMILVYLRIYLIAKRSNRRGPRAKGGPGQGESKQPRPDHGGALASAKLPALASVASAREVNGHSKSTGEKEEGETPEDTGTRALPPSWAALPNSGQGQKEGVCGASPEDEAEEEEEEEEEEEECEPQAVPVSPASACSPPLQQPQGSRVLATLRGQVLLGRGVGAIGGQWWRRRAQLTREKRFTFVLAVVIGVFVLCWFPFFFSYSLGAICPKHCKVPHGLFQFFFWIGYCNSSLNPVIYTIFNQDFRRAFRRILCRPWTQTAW
Method: as §2, §3

alpha2C receptor = molecular target: T3, alpha2C receptor (Homo sapiens, UniProt P18825); assay: RSAT (Receptor Selection and Amplification Technology) assay, alpha 2C; conditions: for EC50 / Alpha 2C EC50: RSAT, transfected NIH-3T3 cells, "not active" = not active at concentrations less than 10 micromolar; for Alpha 2C IA: intrinsic activity: ratio of maximal effect of drug to maximal effect of standard full agonist brimonidine (UK14304)
T3 construct: expressed in transfected cells; host or cells: NIH-3T3 cells
T3 sequence (P18825 1-462): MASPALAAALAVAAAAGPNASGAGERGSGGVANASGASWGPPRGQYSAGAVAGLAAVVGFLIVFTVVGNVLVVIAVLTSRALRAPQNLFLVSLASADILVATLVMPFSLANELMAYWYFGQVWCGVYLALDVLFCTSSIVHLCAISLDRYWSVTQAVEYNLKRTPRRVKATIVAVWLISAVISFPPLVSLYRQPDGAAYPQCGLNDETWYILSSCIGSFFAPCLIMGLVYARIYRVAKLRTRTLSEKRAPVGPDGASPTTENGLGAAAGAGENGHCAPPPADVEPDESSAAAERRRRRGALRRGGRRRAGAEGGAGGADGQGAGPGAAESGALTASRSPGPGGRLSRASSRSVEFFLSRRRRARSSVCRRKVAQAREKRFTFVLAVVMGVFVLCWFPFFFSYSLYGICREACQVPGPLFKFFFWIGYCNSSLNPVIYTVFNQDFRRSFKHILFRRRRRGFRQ
Source text: as §1, §2, §3, §4

[1] = RSAT, transfected NIH-3T3 cells, "not active" = not active at concentrations less than 10 micromolar, read-out: Alpha 2B EC50

| Structure (SMILES) | EC50 (alpha2A receptor) | Alpha 2A IA (alpha2A receptor) | EC50 (alpha2B receptor; [1]) | Alpha 2B IA (alpha2B receptor) | EC50 (alpha2C receptor) | Alpha 2C IA (alpha2C receptor) | Alpha 2C EC50 (alpha2C receptor) | Alpha 2A EC50 (alpha2A receptor) | EC50 (alpha2B receptor) |
| --- | --- | --- | --- | --- | --- | --- | --- | --- | --- |
| O=C(NCCF)NCc1cccc2c1OCO2 [Compound 31, 1-benzo(1,3)dioxol-4-ylmethyl-3-(2-fluoro-ethyl)-urea] | > 2000 nM | 0.48 | 119 nM | 1.0 | 2020 nM | 1.2 | – | – | – |
| Cc1cccc(CNC(=O)NCCF)n1 [Compound 36, 1-(2-fluoro-ethyl)-3-(6-methyl-pyridin-2-ylmethyl)-urea] | 1760 nM | 0.62 | 414 nM | 0.78 | 1800 nM | 0.52 | – | – | – |
| Cc1ccccc1NC(=O)NCCF [Compound 22, 1-(2-fluoro-ethyl)-3-o-tolyl-urea] | > 2000 nM | 0.38 | 1540 nM | 0.92 | > 2000 nM | 0.48 | – | – | – |
| Cc1nn(C)c(C)c1CNC(=O)NCCF [Compound 43, 1-(2-fluoro-ethyl)-3-(1,3,5-trimethyl-1H-pyrazol-4-ylmethyl)-urea] | 4200 nM | 0.30 | 2390 nM | 0.49 | – | – | not active | – | – |
| Cc1c(Cl)cccc1CNC(=O)NCCF [Compound 18, 1-(3-chloro-2-methyl-benzyl)-3-(2-fluoro-ethyl)-urea] | 400 nM | 0.36 | 40 nM | 1.24 | 1380 nM | 0.94 | – | – | – |
| O=C(NCCF)NCc1ccccn1 [Compound 35, 1-(2-fluoro-ethyl)-3-pyridin-2-ylmethyl-urea] | – | – | – | 0.75 | 3710 nM | 0.38 | – | not active | 1990 nM |
| O=C(NCCF)NCc1cccc(Br)c1Cl [Compound 15, 1-(3-bromo-2-chloro-benzyl)-3-(2-fluoro-ethyl)-urea] | 224 nM | 0.46 | 25 nM | 1.3 | 297 nM | 0.88 | – | – | – |
| O=C(NCCF)NCc1cccc(I)c1 [Compound 9, 1-(2-fluoro-ethyl)-3-(3-iodo-benzyl)-urea] | 1480 nM | 0.48 | 171 nM | 0.76 | 302 nM | 0.62 | – | – | – |
| COc1c(Br)cccc1CNC(=O)NCCF [Compound 19, 1-(3-bromo-2-methoxy-benzyl)-3-(2-fluoro-ethyl)-urea] | – | – | 2530 nM | 0.83 | – | – | not active | not active | – |
| O=C(NCCF)Nc1ccc2ccccc2c1 [Compound 25, 1-(2-fluoro-ethyl)-3-naphthalen-2-yl-urea] | 1270 nM | 0.58 | 1580 nM | 0.99 | > 2000 nM | 0.59 | – | – | – |
| O=C(NCCF)NC(c1ccccc1)c1ccccc1 [Compound 32, 1-benzhydryl-3-(2-fluoro-ethyl)-urea] | – | – | 325 nM | 0.58 | – | – | not active | not active | – |
| O=C(NCCF)NCc1cccc(F)c1 [Compound 4, 1-(3-fluoro-benzyl)-3-(2-fluoro-ethyl)-urea] | – | – | 221 nM | 1.14 | 368 nM | 0.47 | – | not active | – |
| O=C(NCCF)NCc1cccc(Cl)c1F [Compound 1, 1-(3-chloro-2-fluoro-benzyl)-3-(2-fluoro-ethyl)-urea] | 1750 nM | 0.54 | 124 nM | 1.0 | 1130 nM | 0.71 | – | – | – |
| Cc1ccccc1CNC(=O)NCCF [Compound 2, 1-(2-fluoro-ethyl)-3-(2-methyl-benzyl)-urea] | – | – | 152 nM | 1.13 | 1290 nM | 0.78 | – | not active | – |
| O=C(NCCF)NCc1ccc(O)cc1 [Compound 41, 1-(2-fluoro-ethyl)-3-(4-hydroxy-benzyl)-urea] | – | – | 293 nM | 0.84 | 800 nM | 0.69 | – | not active | – |
| COc1c(Cl)cccc1CNC(=O)NCCF [Compound 16, 1-(3-chloro-2-methoxy-benzyl)-3-(2-fluoro-ethyl)-urea] | 1020 nM | 0.66 | 93 nM | 1.32 | 724 nM | 0.72 | – | – | – |
| O=C(NCCF)Nc1ccccc1Br [Compound 26, 1-(2-bromo-phenyl)-3-(2-fluoro-ethyl)-urea] | – | – | 2650 nM | 0.33 | – | – | not active | not active | – |
| Cc1cccc(CNC(=O)NCCF)c1 [Compound 5, 1-(2-fluoro-ethyl)-3-(3-methyl-benzyl)-urea] | 980 nM | 0.48 | 88 nM | 1.26 | 876 nM | 0.74 | – | – | – |
| C[C@H](NC(=O)NCCF)c1ccccc1 [Compound 33, (−)-(S)-1-(2-Fluoro-ethyl)-3-(1-phenyl-ethyl)-urea] | 302 nM | 0.63 | 66 nM | 0.99 | 513 nM | 0.64 | – | – | – |
| Cc1cccc(NC(=O)NCCF)c1C [Compound 27, 1-(2,3-dimethyl-phenyl)-3-(2-fluoro-ethyl)-urea] | > 2000 nM | 0.54 | 401 nM | 0.9 | 740 nM | 0.73 | – | – | – |
| O=C(NCCF)NCc1cccc(I)c1I [Compound 13, 1-(2-fluoro-ethyl)-3-(2,3-diiodo-benzyl)-urea] | 1010 nM | 0.59 | 96 nM | 0.86 | 192 nM | 0.72 | – | – | – |
